Drawing on doi:10.1101/2022.12.17.520850v1, “A-ring-fused pyrazoles of dihydrotestosterone targeting prostate cancer cells via the downregulation of the androgen receptor” (biorxiv, 2022), this text covers microscale thermophoresis for one compound.

In the assay the target is T1, human recombinant AR-LBD (Homo sapiens, UniProt P10275).
T1 sequence (P10275 664-920): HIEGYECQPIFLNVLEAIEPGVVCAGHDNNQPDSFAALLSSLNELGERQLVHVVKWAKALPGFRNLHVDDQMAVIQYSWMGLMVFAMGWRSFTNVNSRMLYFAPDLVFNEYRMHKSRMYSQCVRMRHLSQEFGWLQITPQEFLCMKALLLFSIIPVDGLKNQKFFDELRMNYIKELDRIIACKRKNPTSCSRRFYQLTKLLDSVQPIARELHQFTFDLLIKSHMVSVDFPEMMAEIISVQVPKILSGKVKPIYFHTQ
Briefly: microscale thermophoresis. Format: binding. To be noted: […] 3d, […] His-tagged AR-LBD, […] Tris, […] NaCl, pH […] DTT, […] Tween; labelled protein. A general note: MST reads how a fluorescent partner responds to local heating, with and without ligand.

For `Cc1c2c(nn1-c1ccc(F)cc1)C[C@@H]1CC[C@@H]3[C@H](CC[C@]4(C)[C@@H](O)CC[C@@H]34)[C@@]1(C)C2` [3d], the microscale thermophoresis entry is “confirmed thus binding of 3d into the AR-LBD”.
